These results are taken from patent US20230146870A1, “METHOD TO QUANTIFY AFFINITY AND SELECTIVITY OF SMALL MOLECULES FOR PROTEINS IN LIVING CELLS” (Ohio State Innovation Foundation, priority 2021, published 2023).

The structures appear in SMILES notation. “Also recorded” adds a separate entry of the source.

For one test, the target named is PKCη (Homo sapiens, UniProt P24723). The following applies: radiolabeled PDBu at 4° C.; read-out: Biochemical Ki, PKCη; cited from earlier work.
Test [1] concerns the target T1, native (untagged) murine PKCζ (Mus musculus, UniProt Q02956).
T1 sequence (Q02956 1-592): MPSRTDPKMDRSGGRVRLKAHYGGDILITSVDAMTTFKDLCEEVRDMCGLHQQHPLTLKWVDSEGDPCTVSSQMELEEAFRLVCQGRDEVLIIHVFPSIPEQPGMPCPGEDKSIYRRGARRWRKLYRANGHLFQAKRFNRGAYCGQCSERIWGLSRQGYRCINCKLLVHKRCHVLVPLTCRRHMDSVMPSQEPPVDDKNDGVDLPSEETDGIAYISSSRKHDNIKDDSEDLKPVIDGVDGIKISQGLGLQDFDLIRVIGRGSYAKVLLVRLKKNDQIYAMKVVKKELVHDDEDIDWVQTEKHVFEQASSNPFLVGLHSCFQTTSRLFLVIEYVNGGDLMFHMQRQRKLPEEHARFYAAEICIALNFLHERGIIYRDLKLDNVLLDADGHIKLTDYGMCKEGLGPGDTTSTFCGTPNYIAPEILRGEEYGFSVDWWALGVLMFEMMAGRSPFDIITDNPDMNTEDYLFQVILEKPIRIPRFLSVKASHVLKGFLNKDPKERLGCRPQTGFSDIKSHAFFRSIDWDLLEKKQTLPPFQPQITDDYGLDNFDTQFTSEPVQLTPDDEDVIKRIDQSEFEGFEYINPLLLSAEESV
Put plainly: FPCBA competition with probe 1, native PKCζ in HEK293 cells. The test is classed as binding. Also noted: expressed in transfected cells; host or cells: HEK293 (ATCC CRL-1573), transient transfection with pIRES-mVenus carrying the PKC gene. Particulars: probe 1 400 nM, BIM1 2 μM, 2 h at 37° C.

For test [2], the target named is T2, native (untagged) murine PKCβI (Mus musculus, UniProt P68404).
T2 construct: For coexpression of full-length unmodified PKC proteins with mVenus as an independent marker; expressed in transfected cells; host or cells: HEK293 (transient, pIRES-mVenus)
T2 sequence (P68404 2-673 isoform P68404-2): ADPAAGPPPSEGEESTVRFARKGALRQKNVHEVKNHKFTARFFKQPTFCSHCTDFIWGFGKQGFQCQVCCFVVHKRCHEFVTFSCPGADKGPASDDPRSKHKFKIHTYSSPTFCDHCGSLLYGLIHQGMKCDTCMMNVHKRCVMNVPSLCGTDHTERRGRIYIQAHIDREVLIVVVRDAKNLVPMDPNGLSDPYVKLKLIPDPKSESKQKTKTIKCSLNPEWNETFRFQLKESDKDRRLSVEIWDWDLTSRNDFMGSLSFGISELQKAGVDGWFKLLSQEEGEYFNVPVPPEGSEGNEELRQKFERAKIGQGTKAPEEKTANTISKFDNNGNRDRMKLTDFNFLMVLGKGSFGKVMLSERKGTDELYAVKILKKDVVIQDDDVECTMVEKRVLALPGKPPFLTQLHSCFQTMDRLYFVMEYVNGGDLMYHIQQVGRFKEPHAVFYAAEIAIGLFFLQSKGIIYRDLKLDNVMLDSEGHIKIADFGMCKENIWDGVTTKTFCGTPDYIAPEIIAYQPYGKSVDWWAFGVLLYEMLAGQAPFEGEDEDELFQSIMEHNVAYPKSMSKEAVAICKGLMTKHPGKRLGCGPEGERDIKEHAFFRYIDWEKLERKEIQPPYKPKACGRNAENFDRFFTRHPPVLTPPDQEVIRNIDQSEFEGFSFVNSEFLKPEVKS
Put plainly: FPCBA competition with probe 1, native PKCβI in HEK293 cells. The test is classed as binding. The following applies: read-out: Cellular Ki for native PKCβI (95% confidence interval); probe 1 400 nM, BIM1 2 μM, 2 h at 37° C.

Test [3] addresses T3, native (untagged) murine PKCα (Mus musculus, UniProt P20444). The test can be described thus: FPCBA competition with probe 1, native PKCα in HEK293 cells. Type of test: binding. Also noted: For coexpression of full-length unmodified PKC proteins with mVenus as an independent marker; expressed in transfected cells; host or cells: HEK293 (transient, pIRES-mVenus). The following applies: read-out: Cellular Ki for native PKCα (95% confidence interval); probe 1 400 nM, BIM1 2 μM, 2 h at 37° C.

In a further test the target is PKCβI (Homo sapiens, UniProt P05771). The following applies: radiolabeled PDBu at 4° C.; read-out: Biochemical Ki, PKCβI; cited from earlier work.
PKCβI, sequence (P05771 whole entry): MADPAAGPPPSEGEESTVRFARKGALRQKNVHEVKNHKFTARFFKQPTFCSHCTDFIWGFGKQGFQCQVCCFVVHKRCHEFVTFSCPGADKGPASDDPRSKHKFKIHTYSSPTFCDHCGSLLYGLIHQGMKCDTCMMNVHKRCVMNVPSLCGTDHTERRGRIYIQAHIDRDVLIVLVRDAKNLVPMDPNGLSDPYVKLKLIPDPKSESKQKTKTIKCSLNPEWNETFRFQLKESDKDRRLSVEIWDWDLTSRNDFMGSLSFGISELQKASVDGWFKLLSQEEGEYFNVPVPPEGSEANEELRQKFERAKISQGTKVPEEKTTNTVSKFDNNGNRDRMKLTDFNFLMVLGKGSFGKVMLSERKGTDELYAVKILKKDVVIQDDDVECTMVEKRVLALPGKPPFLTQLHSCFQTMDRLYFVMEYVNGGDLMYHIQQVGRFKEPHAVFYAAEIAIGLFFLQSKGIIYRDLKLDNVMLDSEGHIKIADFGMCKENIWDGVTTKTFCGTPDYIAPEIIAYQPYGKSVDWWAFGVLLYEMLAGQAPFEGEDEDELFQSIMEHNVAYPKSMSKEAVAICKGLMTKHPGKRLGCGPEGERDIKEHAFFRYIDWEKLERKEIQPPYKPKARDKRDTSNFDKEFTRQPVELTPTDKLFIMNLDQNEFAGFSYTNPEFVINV
The target in test [4] is native (untagged) murine PKCθ (Mus musculus, UniProt Q02111). The test can be described thus: FPCBA saturation binding of probe 1, native PKCθ (IRES-mVenus) in HEK293 cells.
native (untagged) murine PKCθ, sequence (Q02111 whole entry): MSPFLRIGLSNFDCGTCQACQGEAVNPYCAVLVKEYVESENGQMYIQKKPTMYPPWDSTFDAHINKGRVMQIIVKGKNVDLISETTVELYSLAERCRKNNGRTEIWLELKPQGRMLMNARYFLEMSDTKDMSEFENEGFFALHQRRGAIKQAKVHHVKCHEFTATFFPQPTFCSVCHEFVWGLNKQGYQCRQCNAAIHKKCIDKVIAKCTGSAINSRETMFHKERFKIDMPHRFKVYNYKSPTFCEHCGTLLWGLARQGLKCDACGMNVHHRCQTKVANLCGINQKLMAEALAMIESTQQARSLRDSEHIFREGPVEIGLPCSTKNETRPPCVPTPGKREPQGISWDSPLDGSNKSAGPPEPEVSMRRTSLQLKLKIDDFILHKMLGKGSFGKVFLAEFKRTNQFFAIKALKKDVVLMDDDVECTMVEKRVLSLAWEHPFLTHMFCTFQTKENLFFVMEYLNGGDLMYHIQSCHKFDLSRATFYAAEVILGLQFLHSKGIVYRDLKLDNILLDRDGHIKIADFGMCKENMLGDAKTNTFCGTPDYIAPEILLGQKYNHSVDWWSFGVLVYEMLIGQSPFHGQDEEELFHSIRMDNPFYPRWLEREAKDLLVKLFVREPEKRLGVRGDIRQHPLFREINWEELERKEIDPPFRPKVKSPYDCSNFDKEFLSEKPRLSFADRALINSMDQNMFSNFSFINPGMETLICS
For test [5], the target named is T1, native (untagged) murine PKCζ. Put plainly: FPCBA saturation binding of probe 1, native PKCζ (IRES-mVenus) in HEK293 cells. Particulars: BIM1 2 μM, 2 h at 37° C., 4% FBS.
A further test concerns the target murine PKCζ-mVenus (Mus musculus, UniProt Q02956). Put plainly: FPCBA saturation binding of probe 1, HEK293 cells expressing PKCζ-mVenus (Example 3). The following applies: BIM1 2 μM, 2 h at 37° C., 4% FBS.
Test [6] addresses T3, native (untagged) murine PKCα. Put plainly: FPCBA saturation binding of probe 1, native PKCα (IRES-mVenus) in HEK293 cells.
In test [7] the target is native (untagged) murine PKCγ (Mus musculus, UniProt P63318). Put plainly: FPCBA saturation binding of probe 1, native PKCγ (IRES-mVenus) in HEK293 cells.

PKCη, sequence (P24723 whole entry): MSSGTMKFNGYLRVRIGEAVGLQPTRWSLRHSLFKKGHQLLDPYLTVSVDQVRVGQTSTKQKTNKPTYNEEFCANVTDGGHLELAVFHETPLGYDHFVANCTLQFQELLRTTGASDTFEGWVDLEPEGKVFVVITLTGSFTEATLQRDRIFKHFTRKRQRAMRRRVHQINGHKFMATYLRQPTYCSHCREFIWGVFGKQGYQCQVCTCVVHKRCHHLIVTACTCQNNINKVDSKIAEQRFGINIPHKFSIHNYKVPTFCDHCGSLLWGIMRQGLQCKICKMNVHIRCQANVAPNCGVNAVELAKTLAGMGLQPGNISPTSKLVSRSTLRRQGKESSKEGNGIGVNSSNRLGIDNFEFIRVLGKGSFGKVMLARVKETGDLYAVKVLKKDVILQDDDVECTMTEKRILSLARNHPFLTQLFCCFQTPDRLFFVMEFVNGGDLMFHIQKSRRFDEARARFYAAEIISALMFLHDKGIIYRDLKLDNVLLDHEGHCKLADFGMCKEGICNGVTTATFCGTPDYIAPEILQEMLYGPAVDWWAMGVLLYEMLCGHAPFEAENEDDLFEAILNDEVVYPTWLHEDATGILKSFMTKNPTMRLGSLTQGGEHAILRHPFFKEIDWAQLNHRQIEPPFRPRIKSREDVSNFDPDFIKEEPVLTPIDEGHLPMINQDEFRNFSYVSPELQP

For orientation: Ki means the equilibrium dissociation constant of an inhibitor or competing ligand from its target. Take `CCC/C=C/C=C/C(=O)O[C@H]1/C(=C/C(=O)OC)C[C@H]2C[C@H]([C@@H](C)O)OC(=O)C[C@H](O)C[C@@H]3C[C@H](OC(C)=O)C(C)(C)[C@](O)(C[C@@H]4C/C(=C/C(=O)OC)C[C@H](/C=C/C(C)(C)[C@]1(O)O2)O4)O3` [bryostatin 1]: the Ki was 2.2 nM at PKCη, 4 nM in test [2], 3 nM in test [3] and 2.2 nM at PKCβI. For the same compound, the “Cellular Ki for native PKCζ” value in test [1] is on record as “No binding”.

By Kd is commonly meant a measure of binding affinity in units of concentration. A low value points to tighter binding. As to `CCCCCCN(CCCCCCCCCCCCNC(=O)c1cc2cc(F)c(O)c(F)c2oc1=O)C(=O)O[C@@]12[C@H](O)[C@@H](C)[C@@]3(O)[C@@H](C=C(CO)C[C@]4(O)C(=O)C(C)=C[C@@H]34)[C@@H]1C2(C)C` [probe 1, (1aR,1bS,4aR,7aS,7bS,8R,9R,9aS)-4a,7b,9-trihydroxy-3-(hydroxymethyl)-1,1,6,8-tetramethyl-5-oxo-1,1a,1b,4,4a,5,7a,7b,8,9-decahydro-9aH-cyclopropa[3,4]benzo[1,2-e]azulen-9a-yl (12-(6,8-difluoro-7-hydroxy-2-oxo-2H-chromene-3-carboxamido)dodecyl)(hexyl)carbamate], the Kd in test [4] came out at 1050 ± 125 nM; in test [6], 63 nM; in test [7], 211 ± 92 nM. Further, the “Cellular Kd for probe, native PKCζ” value in [5] is on record as “did not bind; also recorded: No binding”. At murine PKCζ-mVenus, the “Cellular Kd for probe, PKCζ-mVenus” value was “No binding”.
